Source: patent publication US5510340A, “Antihypercholesterolemic compounds and related pharmaceutical compositions and methods of use” (SRI International, priority 1992, dated 1996)

Tests used:
[1] = test system: Cholesterol Levels in Plasma of Rats; test: Assay for Lowering Cholesterol Levels in Rats Fed Drug-Containing Food Ad Libitum; type: in vivo, Male Sprague-Dawley rats; conditions: rat plasma, mean ± S.E.
Procedure: (d.) Assay for Lowering Cholesterol Levels in Rats Fed Drug-Containing Food Ad Libitum:
Male Sprague-Dawley rats weighing 150 to 200 g were used for this experiment. The animals were divided into groups of six rats each. All groups were kept on a cholesterol-free diet throughout the entire experiment. This diet was prepared by adding the test compound in small portions (usually 100 mg) to 100 g of choleserol-free diet in a 1-liter glass separatory funnel with a stopper. The diet was thoroughly mixed after each addition of the test compound. The resulting diet was kept in a refrigerator at all times. Before feeding, the diet was allowed to warm to room temperature. The animals were housed individually in metabolic cages. All test groups were allowed free access to the cholesterol-free diet containing the proper doses of the test compound. A pair-fed group was assigned to each test group and allowed free access to the cholesterol-free diet only in the amount consumed by its corresponding counterpart on the previous day. The control group was allowed free access to the cholesterol-free diet with no restriction. The food consumption and body weights of all groups were recorded daily. Blood samples were taken from all groups on day 0 and every third or fourth day throughout the entire experiment. Plasma was obtained by drawing blood into EDTA-treated centrifuge tubes and centrifuging at 3000 rpm for 10 min. The total cholesterol level and HDL in each plasma sample were determined using a Gemini autoanalyzer.

[2] = test system: Cholesterol Biosynthesis in CHO Cells; test: In Vitro Assay for Inhibition of Cholesterol Biosynthesis in CHO Cells; type: cell-based, Chinese Hamster; conditions: Cricetulus griseus, 14C-acetate incorporation into cholesterol, 16-18 h incubation with compound
Procedure: Chinese Hamster ovary (CHO) cells were seeded at 1×10^5 cells per 60-mm Petri dish and incubated at 37° C. in F-12 medium supplemented with fetal calf serum (5%). After 24 h, the medium was aspirated and replaced with delipidated calf serum in F-12 medium containing the test compounds. At various concentrations, either ethanol or dimethyl sulfoxide was used to dissolve the test compounds to a final concentration of 0.1% in the cell medium. Controls contained the vehicle alone. After incubation for 16-18 h, ^14 C-acetate (20 μM final concentration) was added and incubation continued for 5.5 h. […] The cells were then scraped off the plates with a rubber policeman into saline (2 mL). An aliquot for protein was taken, and the remainder of the cell suspension was centrifuged at 800×g for 10 min. The supernatant was discarded and the pellet extracted by vortexing 15 s in chloroform:methanol (2 mL of 2:1). […] NaCl (0.4 mL) was added, vortexed, and centrifuged, and the top layer was discarded. A portion of the upper phase mixture of chloroform:methanol:water (0.4 mL of 3:48:47) was added and gently swirled to avoid mixing with the bottom layer. The resultant samples were centrifuged, and the top layer was discarded. The procedure was repeated before methanol was finally added to combine the two layers and the solvent was evaporated. Chloroform (200 μL) was added to the residue and an aliquot (150 μL) taken. To the aliquot was added cholesterol (40 μg in 20 μL), and the samples were concentrated. The lipids were dissolved in chloroform (50 μL) and spotted on silica gel G thin-layer chromatography plates. After development in hexane:ether:acetic acid (80:20:1), the ^14 C-cholesterol spot was located with iodine vapor and scraped into a scintillation vial, and the radioactivity was counted with a scintillation counter.

Row | SMILES | Cholesterol levels, LDL ([1]; Day 0, cholesterol-free diet containing 0.2% inhibitor, control 29 ± 0.9) | Cholesterol Levels, Total ([1]; Day 0, cholesterol-free diet containing 0.2% inhibitor, control 70 ± 1) | Cholesterol levels, LDL ([1]; Day 4, cholesterol-free diet containing 0.2% inhibitor, control 28 ± 2) | Cholesterol Levels, Total ([1]; Day 4, cholesterol-free diet containing 0.2% inhibitor, control 77 ± 2) | Cholesterol levels, LDL ([1]; Day 7, cholesterol-free diet containing 0.2% inhibitor, control 26 ± 2) | Cholesterol Levels, Total ([1]; Day 7, diet containing 0.2% inhibitor, control 76 ± 4, ^b significantly lower than Day 0 (P < 0.001), pair-fed (P < 0.005) and control (P < 0.001), ^c significantly lower than pair-fed (P < 0.02)) | Cholesterol levels, LDL ([1]; Day 10, cholesterol-free diet containing 0.2% inhibitor, control 32 ± 1.5) | Cholesterol Levels, Total ([1]; Day 10, cholesterol-free diet containing 0.2% inhibitor, control 81 ± 3) | IC50 [2]
1 | CC(C)CCC[C@@H](C)[C@H]1CC(=O)C2=C3CC[C@H]4C[C@@H](O)CC[C@]4(C)[C@H]3CC[C@@]21C [Compound 27, 3β-Hydroxy-5α-cholest-8(14)-ene-15-one, reference compound] | 34 ± 2 mg/100 mL | 74 ± 3 mg/100 mL | 31 ± 2 mg/100 mL | 69 ± 2 mg/100 mL | 23 ± 2 mg/100 mL | 48 ± 4 mg/100 mL | 41 ± 1.5 mg/100 mL | 66 ± 2 mg/100 mL | –
2 | CC(C)CCC[C@@H](C)[C@H]1Cc2cnc3c4c2[C@]1(C)CC[C@@H]4[C@@]1(C)CC[C@H](O)C[C@@H]1C3 [drawing 39] | – | – | – | – | – | – | – | – | 50 nM
